Experimental data taken from US20180153995A1, “USE OF ANTIMICROBIAL POLYMERS FOR RE-SENSITIZATION OF MICROORGANISMS UPON EMERGENCE OF RESISTANCE TO ANTI-MICROBIAL AGENTS” (Technion Research & Development Foundation Limited, priority 2008, published 2018).
Values joined by “and” are separate entries in the source; they are usually repeats but may differ in a detail not shown here. Identical values can stand only once. Like-named read-outs stand apart in the source and are kept apart here.

Legend:
MRSA 15852 = assay type: cell-based, Staphylococcus aureus; conditions: S. aureus 15852
Method: The fractionary inhibitory (FIC) concentration index for combinations of two antimicrobial agents was calculated as follows: FIC index=FICA+FICB=A/MICA+B/MICB where A and B are the MIC values of agent A and agent B in the combination, MICA and MICB are the MICs of agent A and agent B alone, and FICA and FICB are the FICs of agent A and agent B.
The FIC indexes were interpreted as follows: less than 0.5 indicates a clear re-sensitizing effect; from 0.5 to 4 indicates a marginal or null re-sensitizing effect; and over 4 indicates antagonism.

S. aureus 17314 = test: Antibiotic MIC by microdilution with or without sub-MIC polymer; assay type: cell-based, Staphylococcus aureus
E. coli 16327 = test: microbe, parasite or virus in culture
Method: (§1) MICs were determined by microdilution susceptibility testing in 96-well plates (by Nunc) using inocula of 10^5 bacteria per ml. Cell populations were evaluated by optical density measurements at 620 nm and were calibrated against a set of standards. Hundred (100) μl of a bacterial suspension were added to 100 μl of culture medium (control) or to 100 μl of culture medium containing various polymer concentrations in 2-fold serial dilutions. Inhibition of proliferation was determined by optical density measurements at 620 nm after an incubation period of 24 hours at 37° C.
(§2) 100 μl of a bacterial suspension were added to 100 μl of culture medium (control) or to 100 μl of culture medium containing various antibiotic and C14(9-ene)KKNC12KNH2 (SEQ ID NO: 5) concentrations in 2-fold serial dilutions. Inhibition of proliferation was determined by optical density measurements at 620 nm after an incubation period of 24 hours at 37° C.

P. aeruginosa 8732 = test: Antibiotic MIC by microdilution with or without sub-MIC polymer; assay type: cell-based, Pseudomonas aeruginosa
Method: as §1
Inhibition of proliferation was determined by optical density measurements at 620 nm after an incubation period of 24 hours at 37° C.

P. mirabilis 1285 [1] = assay type: cell-based, Proteus mirabilis; conditions: no polymer (None), Table 12
Method: as §1, §2

E. coli AG100 = test: Antibiotic MIC with or without sub-MIC polymer (Tables 20, 21); assay type: cell-based, Escherichia coli
E. coli AG100/ks = test: as above; assay type: cell-based, Escherichia coli
P. mirabilis 1285 [2] = assay type: cell-based, Proteus mirabilis

CCN1CCN(C(=O)N[C@@H](C(=O)N[C@@H]2C(=O)N3[C@@H]2SC(C)(C)[C@@H]3C(=O)O)c2ccccc2)C(=O)C1=O [Piperacillin, piperacillin]
Antibiotic MIC (MRSA 15852; +¼ MIC (1.6 μM) C12(5-ene)KKNC12KNH2): 128 µg/mL | Antibiotic MIC (MRSA 15852; +¼ MIC (1.6 μM) C12KKNC12KNH2): 256 µg/mL | Antibiotic MIC (MRSA 15852; +½ MIC (3.12 μM) C12(5-ene)KKNC12KNH2): 128 µg/mL | Antibiotic MIC (MRSA 15852; +½ MIC (3.12 μM) C12KKNC12KNH2): 256 µg/mL | Antibiotic MIC (MRSA 15852; +⅓ MIC (2.1 μM) C12(5-ene)KKNC12KNH2): 128 µg/mL | Antibiotic MIC (MRSA 15852; +⅓ MIC (2.1 μM) C12KKNC12KNH2): 256 µg/mL | Antibiotic MIC (MRSA 15852; no polymer (None), Table 8): 128 µg/mL | Antibiotic MIC (MRSA 15852; no polymer (None), Table 11): 256 µg/mL | Antibiotic MIC (S. aureus 17314): 128 µg/mL | Antibiotic MIC (S. aureus 17314; S. aureus 17314, +¼ MIC (1.6 μM) C12K(KNC12K)2NH2): 128 µg/mL | Antibiotic MIC (S. aureus 17314; S. aureus 17314, +¼ MIC (1.6 μM) C14(9-ene)KKNC12KNH2): 32 µg/mL | Antibiotic MIC (S. aureus 17314; S. aureus 17314, +¼ MIC (1.6 μM) C16(9-ene)KKNC12KNH2): 4 µg/mL | Antibiotic MIC (S. aureus 17314; S. aureus 17314, +½ MIC (3.12 μM) C12K(KNC12K)2NH2): 64 µg/mL | Antibiotic MIC (S. aureus 17314; S. aureus 17314, +½ MIC (3.12 μM) C12KKNC12KNH2): 64 µg/mL | Antibiotic MIC (S. aureus 17314; S. aureus 17314, +½ MIC (3.12 μM) C14(9-ene)KKNC12KNH2): 32 µg/mL | Antibiotic MIC (S. aureus 17314; S. aureus 17314, +½ MIC (3.12 μM) C16(9-ene)KKNC12KNH2): 1 µg/mL | Antibiotic MIC (S. aureus 17314; S. aureus 17314, +⅓ MIC (2.1 μM) C12K(KNC12K)2NH2): 128 µg/mL | Antibiotic MIC (S. aureus 17314; S. aureus 17314, +⅓ MIC (2.1 μM) C14(9-ene)KKNC12KNH2): 32 µg/mL | Antibiotic MIC (S. aureus 17314; S. aureus 17314, +⅓ MIC (2.1 μM) C16(9-ene)KKNC12KNH2): 2 µg/mL | Antibiotic MIC (S. aureus 17314; S. aureus 17314, no polymer (None), Table 9): 32 µg/mL | Antibiotic MIC (S. aureus 17314; S. aureus 17314, no polymer (None), Table 10): 8 µg/mL | Antibiotic MIC (S. aureus 17314; S. aureus 17314, no polymer (None), Table 11): 128 µg/mL | Antibiotic MIC (S. aureus 17314; S. aureus 17314, no polymer (None), Table 12): 128 µg/mL | Antibiotic MIC (E. coli 16327): 128 µg/mL and 256 µg/mL | Antibiotic MIC (E. coli 16327; E. coli 16327, +¼ MIC (1.6 μM) C12K(KNC12K)2NH2): 256 µg/mL | Antibiotic MIC (E. coli 16327; E. coli 16327, +½ MIC (3.12 μM) C12K(KNC12K)2NH2): 64 µg/mL | Antibiotic MIC (E. coli 16327; E. coli 16327, +⅓ MIC (2.1 μM) C12K(KNC12K)2NH2): 256 µg/mL | Antibiotic MIC (E. coli 16327; E. coli 16327, no polymer (None), Table 9): 256 µg/mL | Antibiotic MIC (E. coli 16327; E. coli 16327, no polymer (None), Table 10): 512 µg/mL | Antibiotic MIC (E. coli 16327; E. coli 16327, no polymer (None), Table 12): 256 µg/mL | Antibiotic MIC, None (E. coli 16327; E. coli U-16327, antibiotic alone (Table 15)): 256 µg/mL | Antibiotic MIC in presence of C12K(NC8K)7NH2 (SEQ ID NO: 4), +¼ MIC (E. coli 16327; E. coli U-16327, polymer at ¼ of its MIC): 256 µg/mL | Antibiotic MIC in presence of C12K(NC8K)7NH2 (SEQ ID NO: 4), +½ MIC (E. coli 16327; E. coli U-16327, polymer at ½ of its MIC): 32 to 64 µg/mL | Antibiotic MIC in presence of C12K(NC8K)7NH2 (SEQ ID NO: 4), +⅓ MIC (E. coli 16327; E. coli U-16327, polymer at ⅓ of its MIC): 128 to 256 µg/mL | Antibiotic MIC (P. aeruginosa 8732): 256 µg/mL | Antibiotic MIC (P. aeruginosa 8732; P. aeruginosa 8732, +½ MIC (3.12 μM) C16(9-ene)KKNC12KNH2): 256 µg/mL | Antibiotic MIC (P. aeruginosa 8732; P. aeruginosa 8732, +⅓ MIC (2.1 μM) C16(9-ene)KKNC12KNH2): 256 µg/mL | Antibiotic MIC (P. aeruginosa 8732; P. aeruginosa 8732, no polymer (None), Table 10): 256 µg/mL | Antibiotic MIC (P. mirabilis 1285 [1]): 512 µg/mL | Antibiotic MIC, None (E. coli AG100; antibiotic alone (Table 20)): 2 µg/mL | Antibiotic MIC, None (E. coli AG100; antibiotic alone (Table 21)): 2 µg/mL | Antibiotic MIC in presence of C12K(NC8K)5NH2 (SEQ ID NO: 3), +¼ MIC (E. coli AG100; polymer at ¼ of its MIC): 1 to 2 µg/mL | Antibiotic MIC in presence of C12K(NC8K)7NH2 (SEQ ID NO: 4), +¼ MIC (E. coli AG100; polymer at ¼ of its MIC): 2 µg/mL | Antibiotic MIC in presence of C12K(NC8K)5NH2 (SEQ ID NO: 3), +½ MIC (E. coli AG100; polymer at ½ of its MIC): 0.5 µg/mL | Antibiotic MIC in presence of C12K(NC8K)7NH2 (SEQ ID NO: 4), +½ MIC (E. coli AG100; polymer at ½ of its MIC): 0.5 µg/mL | Antibiotic MIC in presence of C12K(NC8K)5NH2 (SEQ ID NO: 3), +⅓ MIC (E. coli AG100; polymer at ⅓ of its MIC): 1 µg/mL | Antibiotic MIC in presence of C12K(NC8K)7NH2 (SEQ ID NO: 4), +⅓ MIC (E. coli AG100; polymer at ⅓ of its MIC): 1 µg/mL | Antibiotic MIC, None (E. coli AG100/ks; antibiotic alone (Table 20)): >512 µg/mL | Antibiotic MIC, None (E. coli AG100/ks; antibiotic alone (Table 21)): >512 µg/mL | Antibiotic MIC in presence of C12K(NC8K)5NH2 (SEQ ID NO: 3), +¼ MIC (E. coli AG100/ks; polymer at ¼ of its MIC): >512 µg/mL | Antibiotic MIC in presence of C12K(NC8K)7NH2 (SEQ ID NO: 4), +¼ MIC (E. coli AG100/ks; polymer at ¼ of its MIC): >512 µg/mL | Antibiotic MIC in presence of C12K(NC8K)5NH2 (SEQ ID NO: 3), +½ MIC (E. coli AG100/ks; polymer at ½ of its MIC): >512-512 μg/ml | Antibiotic MIC in presence of C12K(NC8K)7NH2 (SEQ ID NO: 4), +½ MIC (E. coli AG100/ks; polymer at ½ of its MIC): >512-512 μg/ml | Antibiotic MIC in presence of C12K(NC8K)5NH2 (SEQ ID NO: 3), +⅓ MIC (E. coli AG100/ks; polymer at ⅓ of its MIC): >512 µg/mL | Antibiotic MIC in presence of C12K(NC8K)7NH2 (SEQ ID NO: 4), +⅓ MIC (E. coli AG100/ks; polymer at ⅓ of its MIC): >512 µg/mL | Antibiotic MIC (P. mirabilis 1285 [2]; +¼ MIC (1.6 μM) C12K(KNC12K)2NH2): 512 µg/mL | Antibiotic MIC (P. mirabilis 1285 [2]; +½ MIC (3.12 μM) C12K(KNC12K)2NH2): 512 µg/mL | Antibiotic MIC (P. mirabilis 1285 [2]; +⅓ MIC (2.1 μM) C12K(KNC12K)2NH2): 512 µg/mL
